Assay results taken from patent US20100168102A9, “Amide Derivatives as Kinase Inhibitors” (Devgen NV, priority 2005, published 2010).
Counter-ions that a name gives are not always drawn. Like-named read-outs stand apart in the source and are kept apart here. Each block holds one compound with its values, some of them ahead of it.

What was measured:
human ROCKα/ROCKII mix = molecular target: T1, human ROCKα/ROCKII mix (Homo sapiens, UniProt O75116); test: Biochemical assay for ROCK (fluorescence polarization, ROCK IMAP Kit)
T1 construct: purchased Upstate Biotechnology 14-451
T1 sequence (O75116 11-552 limits assumed): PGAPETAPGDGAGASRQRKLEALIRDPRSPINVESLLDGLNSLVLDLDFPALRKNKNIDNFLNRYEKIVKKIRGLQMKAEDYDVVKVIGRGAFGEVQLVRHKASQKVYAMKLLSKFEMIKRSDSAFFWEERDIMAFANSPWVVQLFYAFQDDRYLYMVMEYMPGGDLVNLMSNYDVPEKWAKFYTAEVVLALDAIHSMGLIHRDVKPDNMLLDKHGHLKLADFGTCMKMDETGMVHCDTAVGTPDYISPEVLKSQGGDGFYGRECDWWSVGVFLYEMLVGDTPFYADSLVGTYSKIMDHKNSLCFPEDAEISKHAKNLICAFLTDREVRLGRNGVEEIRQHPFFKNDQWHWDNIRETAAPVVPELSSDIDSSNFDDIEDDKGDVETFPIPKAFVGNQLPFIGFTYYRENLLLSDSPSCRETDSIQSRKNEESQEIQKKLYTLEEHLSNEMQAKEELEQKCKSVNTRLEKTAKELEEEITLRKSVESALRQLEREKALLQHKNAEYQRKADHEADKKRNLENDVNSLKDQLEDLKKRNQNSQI

PKC epsilon = molecular target: T2, PKC epsilon (Homo sapiens, UniProt Q02156); test: Biochemical assay for PKC epsilon (fluorescence polarization, Protein Kinase C Assay Kit, Red); conditions: read-out: IC50 μM PKCε
T2 construct: purchased Invitrogen P2282
T2 sequence (Q02156 1-737): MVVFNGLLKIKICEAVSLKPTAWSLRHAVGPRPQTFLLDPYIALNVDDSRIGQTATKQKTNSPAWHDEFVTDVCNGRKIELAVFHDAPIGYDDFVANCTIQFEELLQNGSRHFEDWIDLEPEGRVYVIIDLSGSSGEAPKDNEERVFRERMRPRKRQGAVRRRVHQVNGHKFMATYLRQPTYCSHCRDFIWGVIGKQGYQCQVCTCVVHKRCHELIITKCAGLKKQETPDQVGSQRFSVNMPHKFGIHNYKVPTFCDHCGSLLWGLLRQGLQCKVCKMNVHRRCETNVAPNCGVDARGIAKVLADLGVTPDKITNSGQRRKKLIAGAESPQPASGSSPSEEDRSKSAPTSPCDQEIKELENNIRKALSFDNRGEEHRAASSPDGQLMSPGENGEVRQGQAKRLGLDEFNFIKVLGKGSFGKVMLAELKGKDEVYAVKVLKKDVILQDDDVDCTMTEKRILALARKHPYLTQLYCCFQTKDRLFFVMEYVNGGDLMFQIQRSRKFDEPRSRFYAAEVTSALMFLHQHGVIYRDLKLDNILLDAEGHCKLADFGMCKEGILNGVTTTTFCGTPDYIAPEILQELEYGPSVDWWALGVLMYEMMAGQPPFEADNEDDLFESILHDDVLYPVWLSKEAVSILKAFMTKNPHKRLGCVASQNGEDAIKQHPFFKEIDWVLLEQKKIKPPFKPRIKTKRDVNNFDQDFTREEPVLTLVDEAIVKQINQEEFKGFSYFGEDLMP
Summary of the method: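 PKC epsilon at 10 ng/ml final was preincubated 30 min at room temperature with compound in HEPES pH 7.4 with DTT and Triton X-100. ATP/protein substrate was then added in buffer with MgCl2 and CaCl2 for 80 min. The reaction was stopped with EDTA, phosphorylation was detected by fluorescence polarization with rhodamine tracer and anti-phosphoserine antibody, and IC50 values came from curve fits.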

[1] = Table 2, compounds of Formula XIII
[2] = compounds of Formula XIV, Table 3

Structure (SMILES): NC(CNC(=O)Cc1cccs1)c1ccc(C(=O)Nc2ccncc2)cc1 (stereo not shown) [Compound 153, 4-[1-amino-2-(2-thiophen-2-yl-acetylamino)-ethyl]-N-pyridin-4-yl-benzamide]
IC50 (human ROCKα/ROCKII mix; [1]): 0.05 to 0.5 µM
IC50 (PKC epsilon; [1]): 0.5 to 5 µM

Structure (SMILES): NC(CNC(=O)Cc1csc(-c2ccccc2)n1)c1ccc(C(=O)Nc2ccncc2)cc1 (stereo not shown) [Compound 154, 4-{1-Amino-2-[2-(2-phenyl-thiazol-4-yl)-acetylamino]-ethyl}-N-pyridin-4-yl-benzamide]
IC50 (human ROCKα/ROCKII mix; [1]): 0.05 to 0.5 µM
IC50 (PKC epsilon; [1]): 5 to 50 µM

Structure (SMILES): NC(CNC(=O)Cc1csc(Nc2ccccc2)n1)c1ccc(C(=O)Nc2ccncc2)cc1 (stereo not shown) [Compound 155, 4-{1-Amino-2-[2-(2-phenylamino-thiazol-4-yl)-acetylamino]-ethyl}-N-pyridin-4-yl-benzamide]
IC50 (human ROCKα/ROCKII mix; [1]): 0.5 to 5 µM
IC50 (PKC epsilon; [1]): 0.5 to 5 µM

Structure (SMILES): NC(CNC(=O)COc1ccccc1)c1ccc(C(=O)Nc2ccncc2)cc1 (stereo not shown) [Compound 156, 4-[1-Amino-2-(2-phenoxy-acetylamino)-ethyl]-N-pyridin-4-yl-benzamide]
IC50 (human ROCKα/ROCKII mix; [1]): 0.05 to 0.5 µM
IC50 (PKC epsilon; [1]): 0.05 to 0.5 µM

Structure (SMILES): NC(CNC(=O)COc1ccc(F)cc1)c1ccc(C(=O)Nc2ccncc2)cc1 (stereo not shown) [Compound 157, 4-{1-Amino-2-[2-(4-fluoro-phenoxy)-acetylamino]-ethyl}-N-pyridin-4-yl-benzamide]
IC50 (human ROCKα/ROCKII mix; [1]): 0.05 to 0.5 µM
IC50 (PKC epsilon; [1]): 0.05 to 0.5 µM

Structure (SMILES): CCC(Oc1ccccc1)C(=O)NCC(N)c1ccc(C(=O)Nc2ccncc2)cc1 (stereo not shown) [Compound 158, 4-[1-Amino-2-(2-phenoxy-butyrylamino)-ethyl]-N-pyridin-4-yl-benzamide]
IC50 (human ROCKα/ROCKII mix; [1]): 0.05 to 0.5 µM
IC50 (PKC epsilon; [1]): 0.5 to 5 µM

Structure (SMILES): Cc1cc(Cl)ccc1OC(C)C(=O)NCC(N)c1ccc(C(=O)Nc2ccncc2)cc1 (stereo not shown) [Compound 159, 4-{1-Amino-2-[2-(4-chloro-2-methyl-phenoxy)-propionylamino]-ethyl}-N-pyridin-4-yl-benzamide]
IC50 (human ROCKα/ROCKII mix; [1]): 0.05 to 0.5 µM
IC50 (PKC epsilon; [1]): 0.5 to 5 µM

Structure (SMILES): NC(CNC(=O)CC(c1ccccc1)c1ccccc1)c1ccc(C(=O)Nc2ccncc2)cc1 (stereo not shown) [Compound 160, 4-[1-Amino-2-(3,3-diphenyl-propionylamino)-ethyl]-N-pyridin-4-yl-benzamide]
IC50 (human ROCKα/ROCKII mix; [1]): 0.05 to 0.5 µM
IC50 (PKC epsilon; [1]): 5 to 50 µM

The remaining lines, values ahead:

IC50 (human ROCKα/ROCKII mix; [1]): 0.05 to 0.5 µM
IC50 (PKC epsilon; [1]): 0.5 to 5 µM
Structure (SMILES): NC(CNC(=O)C1Cc2ccccc21)c1ccc(C(=O)Nc2ccncc2)cc1 (stereo not shown) [Compound 161, Bicyclo[4.2.0]octa-1,3,5-triene-7-carboxylic acid {2-amino-2-[4-(pyridin-4-ylcarbamoyl)-phenyl]-ethyl}-amide]

IC50 (human ROCKα/ROCKII mix; [1]): 0.05 to 0.5 µM
IC50 (PKC epsilon; [1]): 0.5 to 5 µM
Structure (SMILES): NC(CNC(=O)CCc1ccccc1)c1ccc(C(=O)Nc2ccncc2)cc1 (stereo not shown) [Compound 162]

IC50 (human ROCKα/ROCKII mix; [1]): 0.05 to 0.5 µM
IC50 (PKC epsilon; [1]): 0.05 to 0.5 µM
Structure (SMILES): NC(CNC(=O)CCc1ccc(F)cc1)c1ccc(C(=O)Nc2ccncc2)cc1 (stereo not shown) [Compound 163, 4-{1-amino-2-[3-(4-fluoro-phenyl)-propionylamino]-ethyl}-N-pyridin-4-yl-benzamide]

IC50 (human ROCKα/ROCKII mix; [1]): 0.5 to 5 µM
IC50 (PKC epsilon; [1]): 0.5 to 5 µM
Structure (SMILES): NC(CNC(=O)C1CCc2ccccc2C1)c1ccc(C(=O)Nc2ccncc2)cc1 (stereo not shown) [Compound 164, 1,2,3,4-Tetrahydro-naphtalene-2-carboxylic acid {2-amino-2-[4-(pyridin-4-ylcarbamoyl)-phenyl]-ethyl}-amide]

IC50 (human ROCKα/ROCKII mix; [1]): 0.5 to 5 µM
IC50 (PKC epsilon; [1]): 0.5 to 5 µM
Structure (SMILES): CC1=C(C(=O)NCC(N)c2ccc(C(=O)Nc3ccncc3)cc2)Cc2ccccc21 (stereo not shown) [Compound 165, 3-Methyl-1H-indene-2-carboxylic acid {2-amino-2-[4-(pyridin-4-ylcarbamoyl)-phenyl]-ethyl}-amide]

IC50 (human ROCKα/ROCKII mix; [1]): 0.5 to 5 µM
IC50 (PKC epsilon; [1]): 5 to 50 µM
Structure (SMILES): NC(CNC(=O)CCc1cccnc1)c1ccc(C(=O)Nc2ccncc2)cc1 (stereo not shown) [Compound 166, 4-[1-Amino-2-(3-pyridin-3-yl-propionylamino)-ethyl]-N-pyridin-4-yl-benzamide]

IC50 (human ROCKα/ROCKII mix; [1]): 0.05 to 0.5 µM
IC50 (PKC epsilon; [1]): 0.05 to 0.5 µM
Structure (SMILES): NC(CNC(=O)Cc1ccc(F)c(F)c1)c1ccc(C(=O)Nc2ccncc2)cc1 (stereo not shown) [Compound 167, 4-{1-Amino-2-[2-(3,4-difluoro-phenyl)-acetylamino]-ethyl}-N-pyridin-4-yl-benzamide dihydrochloride]

IC50 (human ROCKα/ROCKII mix; [2]): 0.05 to 0.5 µM
IC50 (PKC epsilon; [2]): 0.5 to 5 µM
Structure (SMILES): CCNC(=O)CC(N)c1ccc(C(=O)Nc2ccncc2)cc1 (stereo not shown) [Compound 169]

IC50 (human ROCKα/ROCKII mix; [2]): 0.05 to 0.5 µM
IC50 (PKC epsilon; [2]): 0.5 to 5 µM
Structure (SMILES): CC(C)C(C)NC(=O)CC(N)c1ccc(C(=O)Nc2ccncc2)cc1 (stereo not shown) [Compound 170, 4-[1-amino-2-(1,2-dimethyl-propylcarbamoyl)-ethyl]-N-pyridin-4-yl-benzamide]
